Counter-ions that a name gives are not always drawn.
Tests used:
[1] = test system: femoral artery; experiment: Peripheral action of the compounds of Examples 1, 2 and 4 (femoral rate of flow, local peripheral resistance, blood pressure), 2.5 mg/kg; format: in vivo, dogs; conditions: for Femoral rate of flow: increase; for Local peripheral resistance: at 30mn, decrease
Experimental: (§1) The tests were conducted with pentobarbital anesthetized dogs (35 mg/kg/i.v.) under artificial respiration with pentobarbital infusion (5 mg/kg/hr).
(§2) The carotid arterial pressure was recorded by means of an electromagnetic capsule connected to the carotid artery. From said determination were calculated the mean blood pressure, the systolic pressure, the diastolic pressure and the pulse pressure.
(§3) The femoral rate of flow was recorded by means of an electromagnetic sensor placed around the femoral artery. Local peripheral resistance was calculated from said parameters.

[2] = Acute toxicity, oral; conditions: rat, in vivo, single administration, fasted male Sprague Dawley rats, after 14 days, p = 0.05, Litchfield and Wilcoxon
Experimental: Acute toxicity was studied orally in male Sprague Dawley rats kept fasting 24 hours prior to the test, distributed in homogeneous groups of 10 animals each.
The animals were given a single administration of the test materials and were kept under observation during 14 days.
The LD50 were determined after 14 days at a probability threshold of p = 0.05, according to the method of Litchfield and Wilcoxon.

[3] = test system: femoral artery; experiment: Vasodilator action in anesthetized dogs (femoral rate of flow, local peripheral resistance), 5 mg/kg i.v.; format: in vivo; conditions: 5 mg/kg intravenously
Experimental: as §1, §2, §3
The compounds of the formula (I) were administered intravenously at a dosage of 5 mg/kg. Two tests were conducted with each compound.

Row | Compound | Femoral rate of flow ([1]; 1 hour) [%] | Local peripheral resistance [1] [%] | LD50 at 336 h [2] [mg/kg] | assessment among the compounds tested for peripheral vasodilator activity [3] | Femoral rate of flow ([1]; 30mn) [%] | Femoral rate of flow ([1]; on injection (injec.)) [%]
1 | CC(=O)C(c1ccccc1)N1CCN(CCOc2ccccc2)CC1 (stereo not shown) [Example 1, 1-[N-(2-phenoxy-1-ethyl)piperazino]-1-phenylacetone] | > 25 | 20 | 800 | particularly valuable |  | 
2 | CC(O)C(c1ccccc1)N1CCN(CCOc2ccccc2)CC1 (stereo not shown) [Example 2, 1-[N-(2-phenoxy-1-ethyl)piperazino]-1-phenyl-2-propanol] |  | 15 | 250 | particularly valuable | > 15 | > 100
3 | CCC(O)C(c1ccccc1)N1CCN(CCOc2ccccc2C)CC1 (stereo not shown) [Example 4, 1-(N-[2-(2-methyl-1-phenoxy)-1-ethyl]piperazino)-1-phenyl-2-butanol dihydrochloride] | > 30 | 30 | 700 | particularly valuable |  | 

Reference: patent US4127661A, “Piperazine alkanols” (Serdex - Societe d'Etudes, de Recherches, de Diffusion et …, priority 1976, dated 1978)
